One assay concerns wild-type B-Raf. More on the design: method as in PMID 22376051, PMID 22763369, PMID 22883026, PMID 23906342. Conditions: cited from earlier work.
Assay [1] addresses T1, VEGFR2 (Homo sapiens, UniProt P35968). Details: method as in PMID 22376051, PMID 22763369, PMID 22883026, PMID 23906342. The settings on record: literature values used as 3D-QSAR data set; read-out: Kinase IC50 VEGFR2; cited from earlier work.
Assay [2] deals with T2, B-Raf^V600E (Homo sapiens, UniProt P15056, V600E). More on the design: method as in PMID 22376051, PMID 22763369, PMID 22883026, PMID 23906342. The settings on record: literature values used as 3D-QSAR data set; read-out: Kinase IC50 B-Raf^V600E; cited from earlier work.
In the next assay the test system is C-Raf. More on the design: method as in PMID 22376051, PMID 22763369, PMID 22883026, PMID 23906342. The settings on record: cited from earlier work.
The target of assay [3] is T2, B-Raf^V600E. Kind of assay: B-Raf^V600E kinase inhibition (literature data set). It is filed as biochemical. Conditions: −log IC50 of literature IC50; read-out: B-Raf Actual pIC50 (converted). How it is done:
The IC50 values of all compounds for B-Raf and KDR inhibition were converted to the −log IC50 (pIC50) as dependent variables in the 3D-QSAR analysis. The 3D structures for all 40 compounds were built and minimized, and then Gasteiger-Hückel charge was calculated. All works were all done in SYBYL 6.9 (Tripos, Inc.: St. Louis, MO, USA, 2002).

The target in assay [4] is T1, VEGFR2. Kind of assay: VEGFR2 (KDR) kinase inhibition (literature data set). In kind it is biochemical. How it is done: The IC50 values of all compounds for B-Raf and KDR inhibition were converted to the −log IC50 (pIC50) as dependent variables in the 3D-QSAR analysis. The 3D structures for all 40 compounds were built and minimized, and then Gasteiger-Hückel charge was calculated.

A further assay deals with KDR (Homo sapiens, UniProt P35968). Kind of assay: KDR inhibitory activity of designed new compounds (preliminary pharmacological evaluation). In kind it is biochemical. The settings on record: for IC50: preliminary biological tests. The text has this:
(§1) The designed molecules were synthesized and the preliminary pharmacological evaluation would be used to verify the biological activity and our design strategy.

The target of assay [5] is T2, B-Raf^V600E. Kind of assay: B-Raf^V600E inhibitory activity of designed new compounds (preliminary pharmacological evaluation). It is filed as biochemical. The settings on record: for IC50: preliminary biological tests.
Source text: as §1

Like-named read-outs stand apart in the source and are kept apart here. A value given as a limit tells only on which side of the number the result lay.

T1 sequence (P35968 806-1171): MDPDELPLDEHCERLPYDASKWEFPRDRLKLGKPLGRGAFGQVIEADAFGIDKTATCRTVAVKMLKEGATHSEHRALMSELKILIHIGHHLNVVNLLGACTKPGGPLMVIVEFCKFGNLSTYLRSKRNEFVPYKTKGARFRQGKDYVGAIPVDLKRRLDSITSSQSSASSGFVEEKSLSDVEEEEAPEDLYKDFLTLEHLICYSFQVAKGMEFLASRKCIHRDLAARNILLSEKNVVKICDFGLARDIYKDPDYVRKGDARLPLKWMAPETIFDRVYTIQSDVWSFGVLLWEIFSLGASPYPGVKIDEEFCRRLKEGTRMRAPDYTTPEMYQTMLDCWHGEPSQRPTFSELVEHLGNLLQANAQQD
Sequence of KDR (P35968 20-1356): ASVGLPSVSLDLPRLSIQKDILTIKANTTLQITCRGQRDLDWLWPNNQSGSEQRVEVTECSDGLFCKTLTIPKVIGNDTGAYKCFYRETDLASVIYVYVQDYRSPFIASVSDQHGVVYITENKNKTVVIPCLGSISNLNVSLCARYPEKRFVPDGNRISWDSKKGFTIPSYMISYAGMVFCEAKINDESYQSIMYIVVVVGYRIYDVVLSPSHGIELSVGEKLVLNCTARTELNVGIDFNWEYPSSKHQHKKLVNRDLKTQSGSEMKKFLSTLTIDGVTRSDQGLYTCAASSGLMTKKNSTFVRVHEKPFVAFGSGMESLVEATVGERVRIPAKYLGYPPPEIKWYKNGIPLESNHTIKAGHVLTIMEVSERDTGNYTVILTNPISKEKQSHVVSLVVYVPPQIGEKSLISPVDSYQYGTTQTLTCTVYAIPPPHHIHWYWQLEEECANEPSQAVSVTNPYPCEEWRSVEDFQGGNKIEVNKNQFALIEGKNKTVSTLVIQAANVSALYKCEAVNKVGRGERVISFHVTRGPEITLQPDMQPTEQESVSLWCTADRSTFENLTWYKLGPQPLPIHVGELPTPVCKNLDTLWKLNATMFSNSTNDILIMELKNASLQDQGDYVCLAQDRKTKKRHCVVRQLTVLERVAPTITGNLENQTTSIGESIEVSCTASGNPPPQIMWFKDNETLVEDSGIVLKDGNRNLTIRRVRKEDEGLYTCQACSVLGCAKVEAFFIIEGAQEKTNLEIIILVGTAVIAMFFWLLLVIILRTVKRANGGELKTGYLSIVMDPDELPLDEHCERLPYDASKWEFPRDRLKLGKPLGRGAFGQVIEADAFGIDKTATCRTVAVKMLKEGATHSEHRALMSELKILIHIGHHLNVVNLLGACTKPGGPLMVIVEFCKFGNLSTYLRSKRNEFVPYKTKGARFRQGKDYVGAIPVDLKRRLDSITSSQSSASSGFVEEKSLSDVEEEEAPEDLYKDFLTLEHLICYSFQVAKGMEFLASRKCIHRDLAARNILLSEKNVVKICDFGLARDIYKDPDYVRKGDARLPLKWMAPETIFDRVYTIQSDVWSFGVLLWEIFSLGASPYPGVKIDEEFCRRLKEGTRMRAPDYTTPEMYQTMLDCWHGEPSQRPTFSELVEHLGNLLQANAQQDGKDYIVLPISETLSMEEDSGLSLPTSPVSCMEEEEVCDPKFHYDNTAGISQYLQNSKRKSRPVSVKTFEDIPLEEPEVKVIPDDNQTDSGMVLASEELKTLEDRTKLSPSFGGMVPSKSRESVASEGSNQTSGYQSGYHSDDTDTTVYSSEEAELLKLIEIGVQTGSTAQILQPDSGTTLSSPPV
T2 sequence (P15056 whole entry V600E): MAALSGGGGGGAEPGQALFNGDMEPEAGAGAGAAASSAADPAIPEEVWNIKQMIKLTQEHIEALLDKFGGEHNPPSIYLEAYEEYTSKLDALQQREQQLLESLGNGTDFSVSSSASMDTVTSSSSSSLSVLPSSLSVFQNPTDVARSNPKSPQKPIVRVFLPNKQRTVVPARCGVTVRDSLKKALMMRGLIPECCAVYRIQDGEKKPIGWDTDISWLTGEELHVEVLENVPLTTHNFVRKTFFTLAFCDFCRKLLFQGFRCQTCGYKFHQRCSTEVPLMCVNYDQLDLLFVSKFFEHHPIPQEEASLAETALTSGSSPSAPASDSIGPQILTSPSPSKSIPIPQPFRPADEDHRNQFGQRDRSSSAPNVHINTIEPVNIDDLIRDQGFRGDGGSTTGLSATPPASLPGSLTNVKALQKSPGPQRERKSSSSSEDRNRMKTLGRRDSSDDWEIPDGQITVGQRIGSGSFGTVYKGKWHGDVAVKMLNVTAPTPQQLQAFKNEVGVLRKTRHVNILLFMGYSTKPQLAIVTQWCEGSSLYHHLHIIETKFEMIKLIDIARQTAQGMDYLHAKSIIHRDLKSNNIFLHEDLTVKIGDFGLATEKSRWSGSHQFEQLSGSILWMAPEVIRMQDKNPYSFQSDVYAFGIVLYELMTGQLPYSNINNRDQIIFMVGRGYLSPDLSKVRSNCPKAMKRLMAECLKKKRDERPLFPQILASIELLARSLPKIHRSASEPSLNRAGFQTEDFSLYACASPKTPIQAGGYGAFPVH

Take `N#CC1(c2cccc(C(=O)Nc3cc(Oc4ccc5nc(NC(=O)C6CC6)sc5n4)ccc3F)c2Cl)CC1` [Compound 0JA]: the IC50 is 12 nM with wild-type B-Raf, 2.2 nM on VEGFR2 [1], 7 nM on B-Raf^V600E [2] and 1.5 nM with C-Raf.

Take `CC(=O)Nc1cn2nc(Oc3cccc(NC(=O)c4cccc(C(F)(F)F)c4)c3)ccc2n1` [Compound 1-2]: the IC50 is 4.07 nM at B-Raf^V600E [3], 1.1 nM at VEGFR2 [1], 1.1 nM against VEGFR2 [4] and 4.1 nM on B-Raf^V600E [2].

Consider `CCC(=O)Nc1cn2nc(Oc3cccc(NC(=O)c4cccc(C(F)(F)F)c4)c3)ccc2n1` [Compound 1-3], for which the IC50 at B-Raf^V600E [3] was 6.92 nM; at VEGFR2 [1], 1.7 nM; on VEGFR2 [4], 1.7 nM; at B-Raf^V600E [2] it was 6.9 nM.

For the compound `O=C(Nc1cccc(Oc2ccc3nc(NC(=O)C4CC4)cn3n2)c1)c1cccc(C(F)(F)F)c1` [Compound 1-4], the IC50 on B-Raf^V600E [3] is 7.59 nM; at VEGFR2 [1] it was 1.9 nM; against VEGFR2 [4], 1.91 nM; on B-Raf^V600E [2], 7.6 nM.

With `O=C(Nc1cccc(Oc2ccc3nc(NC(=O)C4CCC4)cn3n2)c1)c1cccc(C(F)(F)F)c1` [Compound 1-5], the IC50 on B-Raf^V600E [3] was 28.2 nM; on VEGFR2 [1] it was 4.8 nM; at VEGFR2 [4], 4.79 nM; at B-Raf^V600E [2] it was 28 nM.

In the case of `O=C(Nc1cccc(Oc2ccc3nc(NC(=O)C4CCCC4)cn3n2)c1)c1cccc(C(F)(F)F)c1` [Compound 1-6], the IC50 on B-Raf^V600E [3] was 43.7 nM; on VEGFR2 [1], 9.3 nM; against VEGFR2 [4], 9.33 nM; at B-Raf^V600E [2], 44 nM.

On to `O=C(Nc1cccc(Oc2ccc3nc(NC(=O)C4CC4)cn3n2)c1)c1ccc(C(F)(F)F)cc1` [Compound 1-7], for which the IC50 at B-Raf^V600E [3] is 81.3 nM; on VEGFR2 [1] it was 1.9 nM; against VEGFR2 [4] it was 1.91 nM; on B-Raf^V600E [2], 81 nM.

For `O=C(Nc1cccc(Oc2ccc3nc(NC(=O)C4CC4)cn3n2)c1)c1ccccc1C(F)(F)F` [Compound 1-8], the IC50 at B-Raf^V600E [3] was 3720 nM; at VEGFR2 [1], 1.4 nM; on VEGFR2 [4], 1.41 nM; on B-Raf^V600E [2], 3700 nM.

Turning to `COc1cccc(C(=O)Nc2cccc(Oc3ccc4nc(NC(=O)C5CC5)cn4n3)c2)c1` [Compound 1-9], the IC50 is 18.2 nM on B-Raf^V600E [3], 0.31 nM at VEGFR2 [1], 0.309 nM against VEGFR2 [4] and 18 nM at B-Raf^V600E [2].

In the case of `CC(C)(C)Oc1cccc(C(=O)Nc2cccc(Oc3ccc4nc(NC(=O)C5CC5)cn4n3)c2)c1` [Compound 1-10], the IC50 on B-Raf^V600E [3] is 15.1 nM; on VEGFR2 [1] it was 1.8 nM; against VEGFR2 [4] it was 1.82 nM; at B-Raf^V600E [2] it was 15 nM.

As to `CC(C)(O)c1cccc(C(=O)Nc2cccc(Oc3ccc4nc(NC(=O)C5CC5)cn4n3)c2)c1` [Compound 1-11], the results for the IC50 on B-Raf^V600E [3], at VEGFR2 [1] and on VEGFR2 [4] were 10 nM, 0.82 nM and 0.813 nM, respectively.

Turning to `CC(C)(C#N)c1cccc(C(=O)Nc2cccc(Oc3ccc4nc(NC(=O)C5CC5)cn4n3)c2)c1` [Compound 1-12], the IC50 at B-Raf^V600E [3] was 14.1 nM; at VEGFR2 [1] it was 1.5 nM; at VEGFR2 [4], 1.51 nM; on B-Raf^V600E [2] it was 14 nM.

On to `CC(C)(C#N)c1cccc(C(=O)Nc2cccc(Oc3ccc4nc(NC(=O)C5CC5)cn4c3)c2)c1` [Compound 2-1], for which the IC50 at B-Raf^V600E [3] is 49 nM; on VEGFR2 [1] it was 1.8 nM; against VEGFR2 [4], 1.82 nM; at B-Raf^V600E [2], 49 nM.

Take `CC(C)(C#N)c1cccc(C(=O)Nc2cccc(Oc3ccc4nc(NC(=O)C5CC5)[nH]c4c3)c2)c1` [Compound 2-2]: the IC50 was 40.7 nM at B-Raf^V600E [3], 8.1 nM at VEGFR2 [1], 8.13 nM against VEGFR2 [4] and 41 nM on B-Raf^V600E [2].

As for `CC(C)(C#N)c1cccc(C(=O)Nc2cccc(Oc3ccc4nc(NC(=O)C5CC5)[nH]c4n3)c2)c1` [Compound 2-3], the IC50 at B-Raf^V600E [3] was 17 nM; at VEGFR2 [1], 3.1 nM; on VEGFR2 [4], 3.09 nM; on B-Raf^V600E [2], 17 nM.

`Cn1c(NC(=O)C2CC2)nc2ccc(Oc3cccc(NC(=O)c4cccc(C(C)(C)C#N)c4)c3)nc21` [Compound 2-4]: the IC50 on B-Raf^V600E [3] is 200 nM; at VEGFR2 [1], 2.4 nM; against VEGFR2 [4], 2.4 nM; on B-Raf^V600E [2], 200 nM.

`CC(C)(C#N)c1cccc(C(=O)Nc2cccc(Oc3ccc4nc(NC(=O)C5CC5)sc4c3)c2)c1` [Compound 2-5]: the IC50 at B-Raf^V600E [3] was 25.1 nM; at VEGFR2 [1] it was 14 nM; against VEGFR2 [4], 14.1 nM; on B-Raf^V600E [2] it was 25 nM.

Turning to `N#CC1(c2cccc(C(=O)Nc3cccc(Oc4ccc5nc(NC(=O)C6CC6)sc5n4)c3)c2)CC1` [Compound 3-1], the IC50 was 3.02 nM on B-Raf^V600E [3], 2.2 nM at VEGFR2 [1], 2.19 nM against VEGFR2 [4] and 3 nM at B-Raf^V600E [2].

For the compound `N#CC1(c2cccc(C(=O)Nc3cccc(Oc4ccc5nc(NC(=O)C6CC6)sc5n4)c3)c2Cl)CC1` [Compound 3-2], the IC50 on B-Raf^V600E [3] is 8.91 nM; at VEGFR2 [1], 4 nM; on VEGFR2 [4], 3.98 nM; on B-Raf^V600E [2] it was 9 nM.

As for `N#CC1(c2cccc(C(=O)Nc3cc(Oc4ccc5nc(NC(=O)C6CC6)sc5n4)ccc3Cl)c2Cl)CC1` [Compound 3-4], the IC50 on B-Raf^V600E [3] was 42.7 nM; at VEGFR2 [1], 7.5 nM; against VEGFR2 [4], 7.59 nM; on B-Raf^V600E [2] it was 43 nM.

Regarding `CC(=O)Nc1nc2ccc(Oc3ccc(F)c(NC(=O)c4cccc(C5(C#N)CC5)c4Cl)c3)nc2s1` [Compound 3-5], the IC50 on B-Raf^V600E [3] is 6.31 nM; at VEGFR2 [1] it was 3.4 nM; against VEGFR2 [4], 3.39 nM; at B-Raf^V600E [2], 6.3 nM.

Take `CC(=O)Nc1nc2cnc(Oc3cc(NC(=O)c4cccc(CCC#N)c4)ccc3C)nc2s1` [Compound 4-1]: the IC50 was 51.3 nM on B-Raf^V600E [3], 410 nM at VEGFR2 [1], 407 nM on VEGFR2 [4] and 51 nM on B-Raf^V600E [2].

On to `CC(=O)Nc1nc2cnc(Oc3cc(NC(=O)c4cccc(CC(C)(C)C#N)c4)ccc3C)nc2s1` [Compound 4-2], for which the figures for the IC50 at B-Raf^V600E [3], on VEGFR2 [1] and against VEGFR2 [4] were 100 nM, 300 nM and 302 nM, respectively.

Take `CC(=O)Nc1nc2cnc(Oc3cc(NC(=O)c4cccc(OC(C)(C)C#N)c4)ccc3C)nc2s1` [Compound 4-3]: the IC50 on B-Raf^V600E [3] was 72.4 nM; at VEGFR2 [1], 510 nM; at VEGFR2 [4], 513 nM; at B-Raf^V600E [2], 73 nM.

Regarding `CNC(=O)c1nc2ccc(C(=O)c3cccc(NC(=O)c4ccc(C)cc4)c3)cc2[nH]1` [Compound D1], at KDR, the “Actual pIC50 KDR” value came out at 6.00 and the IC50 is 990 nM. Further, at B-Raf^V600E [5], the “Actual pIC50 B-Raf” value was found to be 6.55 and the IC50 stood at 280 nM.

Turning to `CNC(=O)c1nc2ccc(C(=O)c3cccc(NC(=O)c4cccc(Cl)c4)c3)cc2[nH]1` [Compound D2], at KDR, the “Actual pIC50 KDR” value was 6.68 and the IC50 was found to be 210 nM. At B-Raf^V600E [5], the “Actual pIC50 B-Raf” value worked out at 6.38 and the IC50 came out at 420 nM.

With `CNC(=O)c1nc2ccc(C(=O)c3cccc(NC(=O)c4ccc(Cl)cc4)c3)cc2[nH]1` [Compound D3], on KDR, the “Actual pIC50 KDR” value came out at 6.02 and the IC50 stood at 950 nM. Further, the IC50 at B-Raf^V600E [5] was greater than 5000 nM.

As for `CNC(=O)c1nc2ccc(C(=O)c3cccc(NC(=O)c4cccc(F)c4)c3)cc2[nH]1` [Compound D4], the “Actual pIC50 KDR” value at KDR was found to be 6.05. The IC50 against KDR was 890 nM; on B-Raf^V600E [5], greater than 5000 nM.

As to `CNC(=O)c1nc2ccc(C(=O)c3cccc(NC(=O)c4ccc(Cl)c(Cl)c4)c3)cc2[nH]1` [Compound D5], on KDR, the IC50 was greater than 5000 nM. Moreover, on B-Raf^V600E [5], the “Actual pIC50 B-Raf” value is listed as 6.82 and the IC50 was 150 nM.

Regarding `CCNC(=O)c1nc2ccc(C(=O)c3cccc(NC(=O)c4cccc(C(F)(F)F)c4)c3)cc2[nH]1` [Compound D6], the “Actual pIC50 KDR” value on KDR is 6.41. The IC50 on KDR is 390 nM; against B-Raf^V600E [5], greater than 5000 nM.

As to `CC(C)NC(=O)c1nc2ccc(C(=O)c3cccc(NC(=O)Nc4cccc(C(F)(F)F)c4)c3)cc2[nH]1` [Compound D7], the IC50 is 1520 nM against KDR and greater than 5000 nM at B-Raf^V600E [5].

Regarding `O=C(Nc1cccc(C(=O)c2ccc3nc(C(=O)NC4CC4)[nH]c3c2)c1)Nc1cccc(C(F)(F)F)c1` [Compound D8], the IC50 was 1320 nM against KDR and greater than 5000 nM on B-Raf^V600E [5].
